In US11034671B2, “Apoptosis signal-regulating kinase inhibitors and uses thereof” (SICHUAN HAISCO PHARMACEUTICAL CO., LTD., priority 2017, dated 2021) one finds Kd data, which are given here for 54 compounds.

In general, Kd refers to the free concentration of one partner at which half of the binding sites on the other are occupied at equilibrium, for simple one-to-one binding.

Chain of ASK1 (Q99683 whole entry): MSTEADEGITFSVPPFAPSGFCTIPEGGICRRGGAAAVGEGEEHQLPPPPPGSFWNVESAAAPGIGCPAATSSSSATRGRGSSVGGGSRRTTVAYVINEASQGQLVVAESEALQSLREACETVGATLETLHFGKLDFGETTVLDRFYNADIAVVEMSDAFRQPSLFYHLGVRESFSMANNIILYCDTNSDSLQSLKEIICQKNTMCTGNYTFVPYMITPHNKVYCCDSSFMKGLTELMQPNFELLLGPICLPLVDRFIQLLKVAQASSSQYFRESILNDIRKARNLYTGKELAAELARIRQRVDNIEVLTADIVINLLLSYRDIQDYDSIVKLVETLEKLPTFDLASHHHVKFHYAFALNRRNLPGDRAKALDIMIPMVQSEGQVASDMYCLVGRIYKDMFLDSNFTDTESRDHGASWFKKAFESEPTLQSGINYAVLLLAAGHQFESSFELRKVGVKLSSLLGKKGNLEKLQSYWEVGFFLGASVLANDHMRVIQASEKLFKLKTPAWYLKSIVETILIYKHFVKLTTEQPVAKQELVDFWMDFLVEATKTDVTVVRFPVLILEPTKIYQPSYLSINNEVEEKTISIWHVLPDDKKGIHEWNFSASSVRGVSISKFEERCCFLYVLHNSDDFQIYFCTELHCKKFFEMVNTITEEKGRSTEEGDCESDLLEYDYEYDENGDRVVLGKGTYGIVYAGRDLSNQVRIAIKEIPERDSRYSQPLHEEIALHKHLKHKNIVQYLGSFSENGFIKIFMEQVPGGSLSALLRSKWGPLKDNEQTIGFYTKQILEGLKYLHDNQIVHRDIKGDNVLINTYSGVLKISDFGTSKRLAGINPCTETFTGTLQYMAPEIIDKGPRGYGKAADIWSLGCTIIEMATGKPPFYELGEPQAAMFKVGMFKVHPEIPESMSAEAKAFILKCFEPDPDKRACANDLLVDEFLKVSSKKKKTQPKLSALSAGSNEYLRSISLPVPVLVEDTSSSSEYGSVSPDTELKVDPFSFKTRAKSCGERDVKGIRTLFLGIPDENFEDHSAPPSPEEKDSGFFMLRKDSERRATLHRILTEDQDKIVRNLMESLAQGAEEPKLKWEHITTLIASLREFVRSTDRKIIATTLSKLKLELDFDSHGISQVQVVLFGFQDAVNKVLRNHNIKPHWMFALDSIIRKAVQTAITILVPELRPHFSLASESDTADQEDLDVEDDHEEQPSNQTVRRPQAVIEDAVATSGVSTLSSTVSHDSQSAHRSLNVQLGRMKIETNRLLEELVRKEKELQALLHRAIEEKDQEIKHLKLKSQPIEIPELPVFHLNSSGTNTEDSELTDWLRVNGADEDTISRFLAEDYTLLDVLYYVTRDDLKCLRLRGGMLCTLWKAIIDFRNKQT

In the experiment the target is ASK1 (Homo sapiens (Human), UniProt Q99683). Nature of the experiment: ASK1 KINOMEscan assay (biochemical Kd), competition binding. The following applies: DNA-tagged ASK1 kinase, 11-point 3-fold dilution. The method, then:
The binding of compounds to ASK1 were determined using DiscoverX's proprietary technology. […] The assay is performed by combining three components: DNA-tagged ASK1 kinase; immobilized ligand; and a test compound. The ability of the test compound to compete with the immobilized ligand is measured via quantitative PCR of the DNA tag. […] The liganded beads were blocked with excess biotin and washed with blocking buffer (SeaBlock (Pierce), 1% BSA, 0.05% Tween 20, 1 mM DTT) to remove unbound ligand and to reduce nonspecific binding. […] Kds were determined using an 11-point 3-fold compound dilution series with three DMSO control points. […] The compounds were then diluted directly into the assays such that the final concentration of DMSO was 0.9%. All reactions were performed in polypropylene 384-well plate. […] The kinase concentration in the eluates was measured by qPCR. Most Kds were determined using a compound top concentration=30,000 nM. […] Binding constants (Kds) were calculated with a standard dose-response curve using the Hill equation: Response=Background+{(Signal−Background)/[1+(Kd^Hill Slope/Dose^Hill Slope)]}, the Hill Slope was set to −1, and curves were fitted using a non-linear least square fit with the Levenberg-Marquardt algorithm.
`Cc1ccc(-c2ccc3c(c2)C(=O)Nc2cccc(n2)-c2nncn2CC[C@@H](C)CO3)cn1` [Example 104] gave a Kd below 0.01 µM.

Compound `COc1ccc2c(c1)C(=O)Nc1cccc(n1)-c1nncn1CCCCCO2` [Example 2] displayed a Kd below 0.01 µM. Then `O=C1Nc2cccc(n2)-c2nncn2CCCOc2ccc(Br)cc21` [Example 33], with 0.1 to 1 µM.

Regarding `CC(C)(O)c1ccc2c(c1)OCCCCn1cnnc1-c1cccc(n1)NC2=O` [Example 53], the Kd was below 0.01 µM.

Compound `O=C1Nc2cccc(n2)-c2nncn2CCCCOc2ccc(OC3CCOC3)cc21` (stereo not drawn) [Example 20] registered a Kd of 0.01 to 0.1 µM. For `COc1ccc2c(c1)C(=O)Nc1cccc(n1)-c1nncn1CCC/C=C/CO2` [Example 3] the value was 0.01 to 0.1 µM. Then `O=C1Nc2cccc(n2)-c2nncn2CCCCOc2cc(F)c(Br)cc21` [Example 28], with 0.1 to 1 µM; and `Cc1ccc(-c2ccc3c(c2)C(=O)Nc2cccc(n2)-c2nncn2C[C@H]2CC2CO3)cn1` (stereo partly drawn) [Example 77], with below 0.01 µM; and `Cc1ccc(-c2ccc3c(c2)C(=O)Nc2cccc(n2)-c2nncn2[C@@H](C)CCCO3)cn1` [Example 88], with below 0.01 µM.

Take `CCc1ccc(-c2ccc3c(c2)C(=O)Nc2cccc(n2)-c2nncn2CCCOC3)cn1` [Example 102]: the Kd is below 0.01 µM. For `O=C1Nc2cccc(n2)-c2nncn2CCCOc2ccc(-c3ccc(C(F)F)nc3)cc21` [Example 90] the value was above 1 µM. Then `O=C1Nc2cccc(n2)-c2nncn2CCCOCc2ccc(-c3ccc(C(F)(F)F)nc3)cc21` [Example 101], with 0.01 to 0.1 µM. In turn, `N#Cc1cc2c(cc1F)OCCCCn1cnnc1-c1cccc(n1)NC2=O` [Example 44] registered a Kd of 0.01 to 0.1 µM.

In turn, `O=C1Nc2cccc(n2)-c2nncn2CC=CCCCOc2ccc(Br)cc21` [Example 12] showed a Kd of 0.01 to 0.1 µM. For `Cc1ccc(-c2ccc3c(c2)C(=O)Nc2cccc(n2)-c2nncn2[C@H]2C[C@@H](CO3)C2)cn1` [Example 69] the value was below 0.01 µM; for `COc1ccc2c(c1)C(=O)Nc1cccc(n1)-c1nncn1CC=CCO2` [Example 6], 0.01 to 0.1 µM. For `Cn1ncc2cc(-c3ccc4c(c3)C(=O)Nc3cccc(n3)-c3nncn3CCCCO4)ccc21` [Example 55] the value was below 0.01 µM; for `COc1cc2c(cc1Br)OCCCCn1cnnc1-c1cccc(n1)NC2=O` [Example 59], 0.1 to 1 µM; for `O=C1Nc2cccc(n2)-c2nncn2CCCOc2ccc(-c3ccc(C(F)F)nc3)cc21` [Example 79], 0.01 to 0.1 µM.

Compound `Cc1ccc(-c2ccc3c(c2)C(=O)Nc2cccc(n2)-c2nncn2[C@H](C)CCCO3)cn1` [Example 89] registered a Kd below 0.01 µM. Then `O=C1Nc2cccc(n2)-c2nncn2CC=CCCOc2ccc(Br)cc21` [Example 10], with below 0.01 µM; and `Cc1ccc(-c2cc3c(cc2C)OCCCCn2cnnc2-c2cccc(n2)NC3=O)cn1` [Example 51], with below 0.01 µM.

Take `COc1ccc2c(c1)C(=O)Nc1cccc(n1)-c1nncn1CCCCO2` [Example 7]: the Kd was below 0.01 µM. Then `Cc1ccc(-c2ccc3c(c2)C(=O)Nc2cccc(n2)-c2nncn2C[C@@H]2CC2CO3)cn1` (stereo partly drawn) [Example 81], with below 0.01 µM; and `N#Cc1ccc2c(c1)C(=O)Nc1cccc(n1)-c1nncn1CCCCO2` [Example 31], with below 0.01 µM. For `CCc1ccc(-c2ccc3c(c2)C(=O)Nc2cccc(n2)-c2nncn2CCCS3)cn1` [compound 92] the value was below 0.01 µM; for `O=C1Nc2cccc(n2)-c2nncn2CCCCOc2ccc(-c3cnc(F)c(Cl)c3)cc21` [Example 99], below 0.01 µM. Then `COc1ccc2c(c1)C(=O)Nc1cccc(n1)-c1nncn1CCCCC2` [Example 5], with 0.1 to 1 µM; and `CC(F)(F)c1ccc(-c2ccc3c(c2)C(=O)Nc2cccc(n2)-c2nncn2CCCCO3)cn1` [Example 78], with below 0.01 µM; and `O=C1Nc2cccc(n2)-c2nncn2CC=CCCOc2ccc(-c3ccc(C4CC4)nc3)cc21` [Example 14], with 0.01 to 0.1 µM. `CC1CCOc2ccc(-c3ccc(C(F)F)nc3)cc2C(=O)Nc2cccc(n2)-c2nncn21` (stereo not drawn) [Example 83] had a Kd above 1 µM. For `CC(C)n1nccc1-c1ccc2c(c1)C(=O)Nc1cccc(n1)-c1nncn1CCCCO2` [Example 45] the value was 0.1 to 1 µM; for `O=C1Nc2cccc(n2)-c2nncn2[C@H]2CCC(C2)Oc2ccc(-c3ccc(C(F)F)nc3)cc21` [Example 86], below 0.01 µM. `O=C1Nc2cccc(n2)-c2nncn2CCCOCc2ccc(-c3ccc(C(F)F)nc3)cc21` [Example 82] returned a Kd below 0.01 µM. For `O=C1Nc2cccc(n2)-c2nncn2CCCCOc2ccc(Cl)cc21` [Example 41] the value was 0.01 to 0.1 µM; for `O=C1Nc2cccc(n2)-c2nncn2CCCCCc2ccc(-c3ccc(C4CC4)nc3)cc21` [Example 8], 0.01 to 0.1 µM. In turn, `O=C1Nc2cccc(n2)-c2nncn2CCCOCc2ccc(-n3cnc(C4CC4)c3)cc21` [Example 103] yielded a Kd below 0.01 µM. For `COc1ccc2c(c1)C(=O)Nc1cccc(n1)-c1nncn1CCCCCCO2` [Example 11] the value was below 0.01 µM. In turn, `Cc1ccc(-c2ccc3c(c2)C(=O)Nc2cccc(n2)-c2nncn2C2C[C@H]2CCO3)cn1` (stereo in doubt) [Example 97] came in with a Kd below 0.01 µM.

Compound `O=C1Nc2cccc(n2)-c2nncn2CCCCOc2ccc(C(F)(F)F)cc21` [Example 32] had a Kd of 0.01 to 0.1 µM. For `Cc1ccc(-c2ccc3c(c2)C(=O)Nc2cccc(n2)-c2nncn2CCCO3)cn1` [Example 60] the value was below 0.01 µM; for `N#Cc1ccc2c(c1)OCCCCn1cnnc1-c1cccc(n1)NC2=O` [Example 96], 0.01 to 0.1 µM; for `O=C1Nc2cccc(n2)-c2nncn2CCCOCc2ccc(-c3cnc(F)c(Cl)c3)cc21` [Example 106], 0.01 to 0.1 µM. Compound `Cc1ncc(-c2ccc3c(c2)C(=O)Nc2cccc(n2)-c2nncn2CCCCO3)cn1` [Example 73] showed a Kd below 0.01 µM. For `O=C1Nc2cccc(n2)-c2nncn2C/C=C\COc2ccc(Br)cc21` [Example 16] the value was 0.01 to 0.1 µM; for `Cc1c(F)c(F)cc2c1C(=O)Nc1cccc(n1)-c1nncn1CCCCO2` [compound 26], 0.1 to 1 µM. Then `Cc1ccc(-c2ccc3c(c2)C(=O)Nc2cccc(n2)-c2nncn2[C@H]2CC[C@H](CC2)O3)cn1` [Example 71], with below 0.01 µM; and `Cc1ccc(-c2cc3c(cc2F)OCCCCn2cnnc2-c2cccc(n2)NC3=O)cn1` [Example 64], with 0.1 to 1 µM; and `O=C1Nc2cccc(n2)-c2nncn2CCCCOc2ccc(-c3ccc(CF)nc3)cc21` [Example 87], with below 0.01 µM. Then `O=C1Nc2cccc(n2)-c2nncn2CCCOCc2ccc(-c3ccc(CF)nc3)cc21` [Example 100], with below 0.01 µM. In the case of `O=C1Nc2cccc(n2)-c2nncn2CCCCOc2cc(F)c(F)cc21` [Example 25], the Kd was in the range of 0.1 to 1 µM. Then `O=C1Nc2cccc(n2)-c2nncn2[C@H]2CC[C@H](CC2)Oc2ccc(-c3ccc(C(F)F)nc3)cc21` [Example 84], with below 0.01 µM; and `Cc1ncc(-c2ccc3c(c2)C(=O)Nc2cccc(n2)-c2nncn2CCCCO3)cc1Cl` [Example 75], with 0.01 to 0.1 µM. For the compound `O=C1Nc2cccc(n2)-c2nncn2CCCOCc2ccc(-c3cnc(F)c(F)c3)cc21` [Example 107], the Kd is 0.01 to 0.1 µM.
